Tested on: platelets
Test: Platelet activation quality control by p-selectin expression
Format: cell-based, human
Settings: control blood
Procedure: To test for a thrombic event, blood was collected from 4 donors, the as blood alone or blood treated with hu5C8 alone (240 μg/ml), sCD40L (10 ng/ml) alone or with combined hu5C8/sCD40L was incubated for 20 minutes at room temperature. Each sample was further incubated for 5 minutes with fluorescent labels for platelets and fibrinogen. As a standard quality control, the control blood was tested for platelet activation using p-selection expression. We confirmed that platelets in control blood were not activated but upon activation by ADP, over 90% of platelet was positive for p-selectin.

## Nc1ncnc2c1ncn2[C@@H]1O[C@H](COP(=O)(O)OP(=O)(O)O)[C@@H](O)[C@H]1O [ADP]
  platelets positive for p-selectin upon activation: over 90%

Reference: US10908171B2, “Additive channels” (Emulate Inc., priority 2016, dated 2021)
